Experimental data as given in patent publication US9206195B2, “Dihydrothienopyrimidines” (Boehringer Ingelheim International GmbH, priority 2011, dated 2015).

Test system: Aβ42 production (γ-secretase) in H4 neuroglioma cells stably expressing the human APP695 isoform
Assay: Screening for preferential inhibition of Aβ42 vs. total Aβ production in H4 neuroglioma cells (Meso Scale Discovery electrochemiluminescence assays on supernatant)
Assay type: cell-based
Settings: for IC50: 22 hours incubation, Aβ42 in supernatant, read-out: Aβ42 cellular IC50; for Ratio Aβ(total)/Aβ42 (Aβ total IC50/Aβ42 IC50): higher ratio = more specific inhibition of Aβ42 over Aβ total
Procedure: Cells were plated out to near confluency. The compounds to be tested were received as 10 mM stocks in 100% DMSO. A dilution series was initially generated in 100% DMSO and then diluted 200-fold in cell culture media such that the tested concentration range was 30 μM to 0.1 nM and the final DMSO concentration was 0.5%. The diluted compounds were incubated with the cells for 22 hours in an incubator at 37° C. and 5% CO2. Aβ42 as well as Aβ total levels were then measured post-incubation from the supernatant of the cells. Aβ42 levels were determined using a specific electrochemiluminescence assay provided by Meso Scale Discovery (Catalog #L21CA-1) according to the manufacturer's protocol. Aβ total levels were likewise determined using a specific electrochemiluminescence assay provided by Meso Scale Discovery (Catalog #L21ZA-1) according to the manufacturer's protocol.
In order to absolutely define the described compounds as modulators of γ-Secretase as opposed to simply inhibitors of γ-Secretase, measurements of not only Aβ42 but also Aβ total are performed.

Row | Compound | IC50 [nM] | Ratio Aβ(total)/Aβ42 (Aβ total IC50/Aβ42 IC50)
1 | COc1cc(Nc2nc(C)c3c(n2)CC2(CCC2)S3)ccc1-n1cnc(C)c1 [Example 10] | 130 | 110
2 | COc1cc(Nc2nc3c(c(N4CCOCC4)n2)SC2(CCC2)C3)ccc1-n1cnc(C)c1 [Example 6] | 140 | 55
3 | COc1cc(Nc2nc3c(c(N(C)C)n2)SC2(CCC2)C3)ccc1-n1cnc(C)c1 [Example 4] | 130 | 50
4 | COc1cc(Nc2nc3c(c(N4CCCCC4)n2)SC2(CCCCC2)C3)ccc1-n1cnc(C)c1 [Example 13] | 130 | 57
5 | COc1cc(Nc2nc3c(c(N4CCCCC4)n2)SC2(CCC2)C3)ccc1-n1cnc(C)c1 [Example 3] | 90 | 85
6 | COc1cc(Nc2nc3c(c(C(C)C)n2)SC2(CCCCC2)C3)ccc1-n1cnc(C)c1 [Example 18] | 7590 | 2
7 | COc1cc(Nc2nc3c(c(N4CCCCC4)n2)[S+]([O-])C2(CCCCC2)C3)ccc1-n1cnc(C)c1 (centres unmarked) [Example 14] | 120 | 100
8 | COc1cc(Nc2nc3c(c(N(C)C)n2)SC2(CCCCC2)C3)ccc1-n1cnc(C)c1 [Example 12] | 120 | 61
9 | COc1cc(Nc2nc3c(c(N4CCOCC4)n2)[S+]([O-])C2(CCC2)C3)ccc1-n1cnc(C)c1 (centres unmarked) [Example 8] | 3250 | >9
10 | Cc1cn(-c2ccc(Nc3nc4c(c(N(C)C)n3)SC3(CCC3)C4)cc2C#N)cn1 [Example 19] | 370 | 55
11 | COc1cc(Nc2nc3c(c(C(C)C)n2)[S+]([O-])C2(CCCCC2)C3)ccc1-n1cnc(C)c1 (centres unmarked) [Example 21] | 19700 | 1
12 | COc1cc(Nc2nc3c(c(NC4CCCC4)n2)[S+]([O-])C2(CCC2)C3)ccc1-n1cnc(C)c1 (centres unmarked) [Example 5] | 220 | 54
13 | Cc1cc(-c2ccc(Nc3nc4c(c(N(C)C)n3)SC3(CCC3)C4)cc2)ccn1 [Example 20] | 1380 | 8
14 | COc1cc(Nc2nc3c(c(N4CCCCC4)n2)[S+]([O-])C2(CCOCC2)C3)ccc1-n1cnc(C)c1 (centres unmarked) [Example 17] | 530 | 51
15 | COc1cc(Nc2nc3c(c(N4CCCCC4)n2)SC2(CCOCC2)C3)ccc1-n1cnc(C)c1 [Example 16] | 820 | >36
16 | Cc1ncc(-c2ccc(Nc3nc4c(c(N(C)C)n3)SC3(CCC3)C4)cn2)o1 [Example 2] | 520 | 51
17 | COc1cc(Nc2nc(C)c3c(n2)CC2(CCC2)[S+]3[O-])ccc1-n1cnc(C)c1 (centres unmarked) [Example 11] | 1550 | 19
18 | COc1cc(Nc2nc3c(c(NC4CCCC4)n2)SC2(CCC2)C3)ccc1-n1cnc(C)c1 [Example 1] | 190 | 37
19 | COc1cc(Nc2nc3c(c(N(C)C)n2)SC2(CCC2)C3)ccc1-c1cnc(C)o1 [Example 7] | 100 | 242
20 | Cc1cn(-c2ccc(Nc3nc4c(c(N(C)C)n3)[S+]([O-])C3(CCC3)C4)cc2C#N)cn1 (centres unmarked) [Example 23] | 1190 | 25
21 | COc1cc(Nc2nc3c(c(N(C)C)n2)[S+]([O-])C2(CCCCC2)C3)ccc1-n1cnc(C)c1 (centres unmarked) [Example 15] | 300 | 61
22 | Cc1cc(-c2ccc(Nc3nc4c(c(N(C)C)n3)[S+]([O-])C3(CCC3)C4)cc2)ccn1 (centres unmarked) [Example 22] | 770 | 12
